In PMC11413778, “Honokiol enhances the sensitivity of cetuximab in KRAS^G13D mutant colorectal cancer through destroying SNX3-retromer complex” (Theranostics, 2024):
pKd: −log10 of the molar value.

Target: T1, SNX3 (Homo sapiens, UniProt O60493)
T1 construct: Recombinant Human SNX3 protein (ab109970)
Assay: biolayer interferometry (biotinylated SNX3 on SA biosensor), supported by CETSA in HCT116 and LoVo lysates
Assay type: binding

T1 sequence (O60493 2-162): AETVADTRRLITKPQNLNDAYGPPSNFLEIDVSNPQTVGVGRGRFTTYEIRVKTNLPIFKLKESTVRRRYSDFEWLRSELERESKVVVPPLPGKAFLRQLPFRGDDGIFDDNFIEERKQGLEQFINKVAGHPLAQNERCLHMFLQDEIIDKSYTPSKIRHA

pKd: 4.54
SMILES: C=CCc1ccc(O)c(-c2ccc(O)c(CC=C)c2)c1 [HNK, honokiol]
